{"source": "paper PMC9890698", "about": "(BMC Biology, 2023)", "key": {"Human P2Y1-R [1]": {"molecular_target": "T1, Human P2Y1-R (Homo sapiens, UniProt P47900)", "T1 construct": "expressed in transfected cells; host or cells: HEK293T/17", "T1 sequence (P47900 whole entry)": "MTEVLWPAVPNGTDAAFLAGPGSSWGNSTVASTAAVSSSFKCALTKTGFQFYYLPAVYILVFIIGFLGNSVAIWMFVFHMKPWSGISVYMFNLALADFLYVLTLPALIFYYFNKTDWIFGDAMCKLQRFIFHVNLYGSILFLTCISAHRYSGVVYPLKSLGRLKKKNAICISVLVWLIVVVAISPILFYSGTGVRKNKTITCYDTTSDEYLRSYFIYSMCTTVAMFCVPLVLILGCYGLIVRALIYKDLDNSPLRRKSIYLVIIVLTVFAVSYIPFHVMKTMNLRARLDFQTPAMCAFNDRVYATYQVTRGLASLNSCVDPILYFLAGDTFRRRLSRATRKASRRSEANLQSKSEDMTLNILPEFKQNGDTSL", "experiment": "β-arrestin 2 recruitment BRET1 assay (β-arrestin 2-RLuc / P2Y1-R-Venus) in HEK293T cells", "format": "cell-based", "conditions": "for b-arrestin 2 signaling, Ligand-modulated BRET (% of maximum MRS2179 mean value): Figure 4b; for b-arrestin 2 signaling, Ligand-modulated BRET (% of maximum MRS2179 mean value) / Ligand-modulated BRET: individual replicates; for Ligand-modulated BRET: Figure 3h, ligand 10 µM", "description": "We assessed β-arrestin 2 recruitment to the receptor using BRET^1 assay. The assay measures the interaction between β-arrestin 2 fused to the Renilla reniformis luciferase (RLuc) energy donor and the receptor fused to fluorescent Venus energy acceptor (Fig. 3a). The recruitment of cytosolic β-arrestin 2 to the receptor at the plasma membrane in the presence of an agonist will promote a significant increase of the BRET signal compared to the basal state, reflecting the close proximity between the β-arrestin 2 energy donor and the receptor energy acceptor [22].\nHuman P2Y1-R (NCBI Reference Sequence: NM_002563.2) and P2Y12-R (NCBI Reference Sequence: NM_022788.3) were fused to double Myc epitope and rat AT1-R (NCBI Reference Sequence: NM_030985.4) to HA tag in N-terminus extracellular region. Alternatively, receptors were also fused to Venus tag in C-terminus intracellular region. Plasmids encoding Gαq-RLuc8, GFP2-Gγ2 and untagged Gβ1 were previously described. ADP was purchased from Sigma-Aldrich/Merck (Darmstadt, Germany). […] The Gq inhibitor (FR900359) was kindly supplied by Evi Kostenis (University of Bonn. Germany).\nG protein activation and β-arrestin 2 recruitment were performed as previously described. Briefly, vectors encoding receptors, Gαq-RLuc8, GFP2-Gγ2, Gβ1, or β-arrestin 2 were transiently cotransfected into HEK293T/17 cells as indicated in the figure legends. Forty-eight hours after transfection, cells were washed and resuspended in PBS containing 0.1% (w/v) glucose at room temperature and then distributed (80 μg proteins/well) in a 96-well microplate (PerkinElmer). For G protein activation experiments (BRET^2), cells were incubated in the absence (basal BRET signal) or in the presence of ligand for 1 minute. BRET signal between RLuc8 and GFP2 was measured after addition of the luciferase substrate coelenterazine 400a (5 μM). For β-arrestin 2 recruitment (BRET^1), cells were stimulated with ligands for 5 or 15 min. BRET signal was recorded after incubation with coelenterazine h (5 μM) for 8 min. For kinetics studies, BRET signal between RLuc and Venus was recorded at 20-s intervals at basal state for the 2 first minutes and then for 5 min after ligand injection. For saturation curves (BRET^1), the expression level of Venus- or RLuc-tagged protein was determined by direct measurement of total fluorescence and luminescence respectively. Total fluorescence was first measured with an excitation filter at 485 nm and an emission filter at 520 nm. Then, the same sample was incubated for 8 minutes with 5 μM coelenterazine h and the total luminescence was measured. BRET^2 and BRET^1 readings were collected using a modified Infinite F500 (Tecan Group Ltd). The BRET^2 signal was calculated by the ratio of emission of GFP2 (510–540 nm) to RLuc8 (370–450 nm) and the BRET^1 signal by the ratio of emission of Venus (520–570 nm) to RLuc (370–480 nm). Sometimes, results are expressed as the Net BRET computed by deducting the BRET background signal (obtained in the presence of the energy donor alone) from the BRET signal (acquired from cells expressing both the energy donor and acceptor)."}, "Human P2Y1-R [2]": {"molecular_target": "T1, Human P2Y1-R", "experiment": "IP1 accumulation assay (HTRF) in HEK293T cells expressing P2Y1-R", "format": "cell-based", "conditions": "MRS2179 10 μM, 2 h", "quoted_text": "Since Gαq protein activation is known to induce PLC activation leading to IP3 and subsequent cytosolic calcium release, we analyzed the constitutive Gαq-dependent P2Y1-R signaling by quantifying intracellular inositol monophosphate (IP1) using a monoclonal antibody-based competitive ELISA. IP1 is a downstream metabolite of IP3 that accumulates in cells following Gαq protein-coupled receptor activation, making it an ideal readout for Gαq protein-dependent signaling pathways."}, "[3]": {"test_system": "washed murine platelets (P2Y1-R/Gαq signaling)", "experiment": "IP1 accumulation assay (HTRF) in washed murine platelets", "format": "cell-based, mouse", "conditions": "MRS2179 10 μM, 2 h", "experimental": "As performed in HEK293T cells, we thus quantified intracellular IP1 levels to monitor Gαq protein-dependent signaling pathways.\nPlatelet-rich plasma (PRP) was obtained by mixing blood with 1 volume of modified Hepes Tyrode’s buffer (137 mM NaCl, 2 mM KCl, 12 mM NaHCO3, 0.3 mM NaH2PO4, 1 mM MgCl2, 2 mM CaCl2, 5.5 mM glucose, 5 mM HEPES, and 0.35% (w/v) BSA, pH 6.7) followed by a centrifugation at 150 g for 2 min at 37 °C. Then, platelets were pelleted by centrifugation at 1000 g for 4 min, resuspended in modified Hepes Tyrode’s buffer (pH 7.4), adjusted to 3.10^8 platelets/mL in the presence of 0.02 U/mL of apyrase and 10 μM indomethacin and rested for 45 minutes at 37°C before platelet stimulation. PGI2 (0.5 μM) was added before centrifugation steps to avoid platelet activation.\nQuantification of intracellular IP1 was performed using the HTRF (Homogeneous Time Resolved Fluorescence) IP1 competitive immunoassay (IP-One Tb kit. Cisbio. France) according to the manufacturer’s instructions. Briefly, 20,000 HEK293T/17 cells or 3.10^6 platelets were distributed in a 384-well white microplate (Greiner) and incubated with the indicated molecules for 30 min or 2 h at 37 °C in the presence of 50 mM of LiCl to prevent IP1 degradation. After addition of d2-labeled IP1 (acceptor) and anti-IP1-Cryptate (donor) for 1 h, the specific FRET signals were calculated by the fluorescence ratio of the acceptor and donor emission signal (665/620 nm) collected using a modified Infinite F500 (Tecan Group Ltd). Conversion of the HTRF ratio of each sample into IP1 concentrations was performed on the basis of a standard curve to determine the linear dynamic range of the assay."}, "[4]": {"conditions": "β-Arrestin 2 signaling, Fig. 4b, 15 min"}}, "note": "Values joined by “and” are separate entries in the source; they are usually repeats but may differ in a detail not shown here. Equal values may be shown once.", "data": [{"smiles": "CNc1ncnc2c1ncn2[C@H]1C[C@H](OP(=O)(O)O)[C@@H](COP(=O)(O)O)O1", "note": "[MRS2179]", "values": [{"measurement": "b-arrestin 2 signaling, Ligand-modulated BRET (% of maximum MRS2179 mean value)", "setting": "Human P2Y1-R [1]; [Ligand] 1.00E-05 M", "value": "-60.9526 % of maximum MRS2179 mean value and -65.9951 % of maximum MRS2179 mean value and -71.6134 % of maximum MRS2179 mean value and -73.8216 % of maximum MRS2179 mean value and -88.9449 % of maximum MRS2179 mean value"}, {"measurement": "b-arrestin 2 signaling, Ligand-modulated BRET (% of maximum MRS2179 mean value)", "setting": "Human P2Y1-R [1]; [Ligand] 1.00E-06 M", "value": "-20.802 % of maximum MRS2179 mean value and -20.2455 % of maximum MRS2179 mean value and -36.1127 % of maximum MRS2179 mean value and -36.3804 % of maximum MRS2179 mean value and -49.6506 % of maximum MRS2179 mean value"}, {"measurement": "b-arrestin 2 signaling, Ligand-modulated BRET (% of maximum MRS2179 mean value)", "setting": "Human P2Y1-R [1]; [Ligand] 1.00E-07 M", "value": "-19.7613 % of maximum MRS2179 mean value and -27.0869 % of maximum MRS2179 mean value and -32.4514 % of maximum MRS2179 mean value and -43.962 % of maximum MRS2179 mean value and -16.0925 % of maximum MRS2179 mean value"}, {"measurement": "b-arrestin 2 signaling, Ligand-modulated BRET (% of maximum MRS2179 mean value)", "setting": "Human P2Y1-R [1]; [Ligand] 1.00E-08 M", "value": "-3.302 % of maximum MRS2179 mean value and 12.7459 % of maximum MRS2179 mean value and -20.5003 % of maximum MRS2179 mean value and -35.6867 % of maximum MRS2179 mean value and -12.0698 % of maximum MRS2179 mean value"}, {"measurement": "b-arrestin 2 signaling, Ligand-modulated BRET (% of maximum MRS2179 mean value)", "setting": "Human P2Y1-R [1]; [Ligand] 1.00E-09 M", "value": "-20.2543 % of maximum MRS2179 mean value and -2.0253 % of maximum MRS2179 mean value and -34.1131 % of maximum MRS2179 mean value and -19.5954 % of maximum MRS2179 mean value and -10.4994 % of maximum MRS2179 mean value"}, {"measurement": "b-arrestin 2 signaling, Ligand-modulated BRET (% of maximum MRS2179 mean value)", "setting": "Human P2Y1-R [1]; [Ligand] 1.00E-10 M", "value": "-0.05365 % of maximum MRS2179 mean value and -19.3587 % of maximum MRS2179 mean value and -11.2009 % of maximum MRS2179 mean value and -4.28 % of maximum MRS2179 mean value and -21.5173 % of maximum MRS2179 mean value"}, {"measurement": "Ligand-modulated BRET", "setting": "Human P2Y1-R [1]; 0.1µg P2Y1-R plasmid", "value": "-0.007776 and -0.009026 and 0.006633 and -0.01036 and -0.001083"}, {"measurement": "Ligand-modulated BRET", "setting": "Human P2Y1-R [1]; 1µg P2Y1-R plasmid", "value": "-0.04239 and -0.06101 and -0.06001 and -0.03815 and -0.06277"}, {"measurement": "Ligand-modulated BRET", "setting": "Human P2Y1-R [1]; 4µg P2Y1-R plasmid", "value": "-0.06559 and -0.09192 and -0.04789 and -0.08727 and -0.06156"}, {"measurement": "Effect on β-arrestin 2 recruitment / BRET signal between P2Y1-R-Venus and β-arrestin 2-RLuc", "setting": "Human P2Y1-R [1]; HEK293T cells, high P2Y1-R expression, result in words", "value": "significantly decreased the BRET signal"}, {"measurement": "EC50", "setting": "Human P2Y1-R [1]; [4]", "value": 5.05, "unit": "µM"}, {"measurement": "pEC50 ± s.e.m.", "setting": "Human P2Y1-R [1]; [4]", "value": "5.296 ± 0.153"}, {"measurement": "Effect on IP1 production", "setting": "Human P2Y1-R [2]; ADP 100 μM, Gq inhibitor 100 nM, result in words", "value": "strongly inhibited"}, {"measurement": "IP1 concentration", "setting": "Human P2Y1-R [2]; P2Y1-R", "value": "323.411 nM and 417.936 nM and 377.702 nM and 245.513 nM and 385.824 nM"}, {"measurement": "IP1 concentration (% matched basal values)", "setting": "[3]; murine platelets, individual mice", "value": "42.6495 % matched basal values and 45.455 % matched basal values and 38.903 % matched basal values and 51.5072 % matched basal values and 54.7749 % matched basal values and 40.3524 % matched basal values and 43.9466 % matched basal values and 64.234 % matched basal values and 61.4369 % matched basal values and 43.9485 % matched basal values and 57.6391 % matched basal values and 59.347 % matched basal values and 42.2435 % matched basal values"}, {"measurement": "Effect on IP1 levels", "setting": "[3]; washed murine platelets, ADP 100 μM, Gq inhibitor 100 nM, apyrase 0.02 U/mL, result in words", "value": "decreased IP1 levels"}]}]}
